The source made the active and inactive calls. No cut-off for these calls is given here.
Assays:
[1] = target: T1, Tyrosine-protein phosphatase non-receptor type 1 (Homo sapiens) (UniProt P18031); assay: Inhibition of recombinant human PTP-1B expressed in Escherichia coli TB1 at 50 uM using p-nitrophenyl phosphate as substrate
T1 sequence (whole entry): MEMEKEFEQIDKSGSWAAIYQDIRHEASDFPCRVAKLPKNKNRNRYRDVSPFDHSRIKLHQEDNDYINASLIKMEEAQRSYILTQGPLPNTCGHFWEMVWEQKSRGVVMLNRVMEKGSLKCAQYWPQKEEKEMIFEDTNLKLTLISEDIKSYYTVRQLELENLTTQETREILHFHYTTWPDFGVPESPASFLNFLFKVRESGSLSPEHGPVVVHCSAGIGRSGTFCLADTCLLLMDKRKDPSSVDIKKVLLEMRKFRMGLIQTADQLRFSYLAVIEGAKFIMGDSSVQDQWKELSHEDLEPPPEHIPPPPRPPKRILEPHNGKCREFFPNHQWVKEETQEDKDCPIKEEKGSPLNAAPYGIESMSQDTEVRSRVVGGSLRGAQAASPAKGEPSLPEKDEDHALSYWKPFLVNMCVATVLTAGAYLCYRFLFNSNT

Homo sapiens [2] = species on record: Homo sapiens; assay: Selectivity ratio of IC50 for recombinant human LMW-PTP isoform 1expressed in Escherichia coli TB1 to IC50 for recombinant human PTP-1B expressed in Escherichia coli TB1
[3] = target: T2, Low molecular weight phosphotyrosine protein phosphatase (Homo sapiens, UniProt P24666); assay: Inhibition of recombinant human LMW-PTP isoform 1 expressed in Escherichia coli TB1
T2 sequence (P24666 whole entry): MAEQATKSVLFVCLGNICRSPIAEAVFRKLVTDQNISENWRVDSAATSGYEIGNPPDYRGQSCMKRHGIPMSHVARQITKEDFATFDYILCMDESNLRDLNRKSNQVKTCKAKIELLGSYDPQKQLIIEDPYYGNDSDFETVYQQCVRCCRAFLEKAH

[4] = target: T2, Low molecular weight phosphotyrosine protein phosphatase; assay: Inhibition of recombinant human LMW-PTP isoform 2 expressed in Escherichia coli TB1
Homo sapiens [5] = species on record: Homo sapiens; assay: Selectivity ratio of IC50 for recombinant human LMW-PTP isoform 2 expressed in Escherichia coli TB1 to IC50 for recombinant human PTP-1B expressed in Escherichia coli TB1
[6] = target: T3, Tyrosine-protein phosphatase non-receptor type 1 (Homo sapiens, UniProt P18031); assay: Inhibition of recombinant human PTP-1B expressed in Escherichia coli TB1 using p-nitrophenyl phosphate as substrate
T3 sequence (P18031 whole entry): T1 sequence (whole entry)

[7] = target: T4, Tyrosine-protein phosphatase non-receptor type 2 (Homo sapiens, UniProt P17706); assay: Inhibition of recombinant human TC-PTP expressed in Escherichia coli TB1
T4 sequence (P17706 whole entry): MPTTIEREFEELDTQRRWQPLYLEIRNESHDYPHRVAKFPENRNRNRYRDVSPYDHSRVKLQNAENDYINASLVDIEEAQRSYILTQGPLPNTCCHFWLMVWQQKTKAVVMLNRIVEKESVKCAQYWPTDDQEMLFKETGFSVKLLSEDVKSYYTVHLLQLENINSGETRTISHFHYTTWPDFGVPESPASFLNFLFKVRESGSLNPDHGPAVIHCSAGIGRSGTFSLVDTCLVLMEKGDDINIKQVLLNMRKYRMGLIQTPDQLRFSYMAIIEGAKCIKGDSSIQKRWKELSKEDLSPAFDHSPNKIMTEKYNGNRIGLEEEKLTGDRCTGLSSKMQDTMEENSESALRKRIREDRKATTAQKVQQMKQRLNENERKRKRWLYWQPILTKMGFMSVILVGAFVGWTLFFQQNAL

[8] = target: T1, Tyrosine-protein phosphatase non-receptor type 1 (Homo sapiens); assay: Partial reversible inhibition of recombinant human PTP-1B expressed in Escherichia coli TB1 at 10 times IC50 using p-nitrophenyl phosphate as substrate preincubated for 90 mins followed by 400 fold dilution
[9] = Solubility of compound in DMSO; type: physicochemical
[10] = target: T3, Tyrosine-protein phosphatase non-receptor type 1; assay: Competitive inhibition of recombinant human PTP-1B expressed in Escherichia coli TB1 using p-nitrophenyl phosphate as substrate by Lineweaver-Burk plot analysis
Rattus norvegicus [11] = assay: Antidiabetic activity in non insulin dependent streptozotocin/nicotinamide-induced diabetic Wistar rat model assessed as decrease in blood glucose levels at 50 mg/kg, ig administered as single dose measured after 7 hrs by glucometer; type: functional; set-up: scale not given: the % may be the effect or the level left
[12] = target: T1, Tyrosine-protein phosphatase non-receptor type 1 (Homo sapiens); assay: Reversible inhibition of recombinant human PTP-1B expressed in Escherichia coli TB1 at 10 times IC50 using p-nitrophenyl phosphate as substrate preincubated for 90 mins followed by 400 fold dilution
Rattus norvegicus [13] = assay: Antidiabetic activity in non insulin dependent streptozotocin/nicotinamide-induced diabetic Wistar rat model assessed as decrease in blood glucose levels at 50 mg/kg, ig administered as single dose measured after 3 hrs by glucometer; type: functional, organism-based

In the case of CC1(C)C=C2[C@H]3CC[C@@H]4[C@@]5(C)CCC(=O)C(C)(C)[C@@H]5CC[C@@]4(C)[C@]3(C)CC[C@@]2(C(=O)NC2CCCCC2)CC1, the inhibition [1] is reported as “Active”.

In the case of CCOC(=O)[C@]12CCC(C)(C)C=C1[C@H]1CC[C@@H]3[C@@]4(C)CCC(=O)C(C)(C)[C@@H]4CC[C@@]3(C)[C@]1(C)CC2, the inhibition [1] is reported as “Active”.

For CC1(C)C=C2[C@H]3CC[C@@H]4[C@@]5(C)CCC6(OCCO6)C(C)(C)[C@@H]5CC[C@@]4(C)[C@]3(C)CC[C@@]2(CO)CC1, the Ratio IC50 (Homo sapiens [2]) was 2, the IC50 [3] was 16.1 µM and the IC50 [4] was 29.3 µM. It also gave a Ratio IC50 (Homo sapiens [5]) of 4, an IC50 [6] of 7.5 µM and an inhibition [1] of 100%. The IC50 [7] was > 100 µM, the inhibition [8] was “Active” and the solubility [9] was “soluble”.

For CC1(C)CC[C@]2(O)CC[C@]3(C)[C@H](CC[C@@H]4[C@@]5(C)CCC(=O)OC(C)(C)[C@@H]5CC[C@]43C)C23OC13 (stereo partly specified), the inhibition [1] was “Active”.

COC(=O)[C@]12CCC(C)(C)C=C1[C@H]1CC[C@@H]3[C@@]4(C)CCC(=O)C(C)(C)[C@@H]4CC[C@@]3(C)[C@]1(C)CC2 showed an IC50 [3] of 33.7 µM, an IC50 [4] of 62.5 µM and a Ki [10] of 3.1 µM. The IC50 [6] was 10.8 µM, the inhibition [1] was 100% and the IC50 [7] was > 100 µM. The Activity (Rattus norvegicus [11]) was 40%, the inhibition [12] was “Active” and the Activity (Rattus norvegicus [13]) was “Active”.

Source: ChEMBL document CHEMBL3784954, “In vitro and in silico PTP-1B inhibition and in vivo antidiabetic activity of semisynthetic moronic acid derivatives” (Bioorg Med Chem Lett, 2016)
